According to PubChem BioAssay (NCI):
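GI50: concentration for 50% inhibition of growth. TGI denotes the concentration required for complete inhibition of growth.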

Assays:
Experiment in all cases: NCI anticancer screen, dose series, 384-well format
[1] = tested on: UO-31 renal
[2] = tested on: SF-268 CNS
[3] = tested on: CAKI-1 renal
[4] = tested on: M14 melanoma
[5] = tested on: MOLT-4 leukemia
[6] = tested on: MDA-MB-231 breast
[7] = tested on: MDA-MB-435 melanoma
[8] = tested on: HCT-15 colon
[9] = tested on: SK-MEL-5 melanoma
[10] = tested on: NCI-H522 lung
[11] = tested on: BT-549 breast
[12] = tested on: SF-539 CNS
[13] = tested on: PC-3 prostate
[14] = tested on: T-47D breast
[15] = tested on: SK-MEL-2 melanoma
[16] = tested on: SNB-19 CNS
[17] = tested on: RXF 393 renal
[18] = tested on: IGROV1 ovarian
[19] = tested on: HCT-116 colon
[20] = tested on: NCI-H460 NSCLC
[21] = tested on: NCI-H23 lung
[22] = tested on: OVCAR-8 ovarian
[23] = tested on: SW-620 colon
[24] = tested on: MALME-3M melanoma
[25] = tested on: NCI-H322M lung
[26] = tested on: LOX IMVI melanoma
[27] = tested on: A498 renal
[28] = tested on: U251 glioblastoma
[29] = tested on: OVCAR-5 ovarian
[30] = tested on: NCI/ADR-RES ovarian
[31] = tested on: HCC-2998 colon
[32] = tested on: HL-60(TB) leukemia
[33] = tested on: ACHN renal
[34] = tested on: A549 NSCLC
[35] = tested on: UACC-62 melanoma
[36] = tested on: SK-OV-3 ovarian
[37] = tested on: OVCAR-4 ovarian
[38] = tested on: EKVX NSCLC
[39] = tested on: 786-0 renal
[40] = tested on: RPMI-8226 leukemia
[41] = tested on: HS 578T breast
[42] = tested on: SR leukemia
[43] = tested on: UACC-257 melanoma
[44] = tested on: SNB-75 CNS
[45] = tested on: OVCAR-3 ovarian
[46] = tested on: TK-10 renal
[47] = tested on: SN12C renal

## CCc1c(C#N)c(SC(C(N)=O)c2ccccc2)nc(N2CCC(N)CC2)c1C#N (centres undefined)
[1]
  GI50: 18.1 µM
  TGI: 33 µM
[2]
  GI50: 13.5 µM
  TGI: 26.4 µM
[3]
  GI50: 13 µM
  TGI: 25.8 µM
[4]
  GI50: 10.4 µM
  TGI: 22.2 µM
[5]
  GI50: 4.95 µM
  TGI: 15.4 µM
[6]
  GI50: 16.2 µM
  TGI: 29.8 µM
[7]
  GI50: 16.8 µM
  TGI: 30.5 µM
[8]
  GI50: 17.3 µM
  TGI: 31.3 µM
[9]
  GI50: 11 µM
  TGI: 23 µM
[10]
  GI50: 8.33 µM
  TGI: 20.9 µM
[11]
  GI50: 10.3 µM
  TGI: 22.1 µM
[12]
  GI50: 6.59 µM
  TGI: 19.3 µM
[13]
  GI50: 11.2 µM
  TGI: 23.4 µM
[14]
  GI50: 14.8 µM
  TGI: 28 µM
[15]
  GI50: 12 µM
  TGI: 24.4 µM
[16]
  GI50: 13.9 µM
  TGI: 27 µM
[17]
  GI50: 16.2 µM
  TGI: 29.8 µM
[18]
  GI50: 15 µM
  TGI: 28.3 µM
[19]
  GI50: 1.84 µM
  TGI: 14.5 µM
[20]
  GI50: 11.2 µM
  TGI: 23.5 µM
[21]
  GI50: 11.5 µM
  TGI: 23.7 µM
[22]
  GI50: 15.6 µM
  TGI: 29.1 µM
[23]
  GI50: 14.7 µM
  TGI: 28.1 µM
[24]
  GI50: 4.17 µM
  TGI: 16.9 µM
[25]
  GI50: 15.9 µM
  TGI: 29.4 µM
[26]
  GI50: 11.4 µM
  TGI: 23.7 µM
[27]
  GI50: 12.9 µM
  TGI: 25.6 µM
[28]
  GI50: 12.5 µM
  TGI: 25.1 µM
[29]
  GI50: 16.1 µM
  TGI: 29.6 µM
[30]
  GI50: 66.6 µM
  TGI: > 100 µM
[31]
  GI50: 8.72 µM
  TGI: 20.9 µM
[32]
  GI50: 2.29 µM
  TGI: 9.95 µM
[33]
  GI50: 14.9 µM
  TGI: 28.2 µM
[34]
  GI50: 14.4 µM
  TGI: 27.7 µM
[35]
  GI50: 6.36 µM
  TGI: 19.7 µM
[36]
  GI50: 17.9 µM
  TGI: 31.9 µM
[37]
  GI50: 13.7 µM
  TGI: 26.6 µM
[38]
  GI50: 15.4 µM
  TGI: 28.8 µM
[39]
  GI50: 11.7 µM
  TGI: 24 µM
[40]
  GI50: 0.201 µM
  TGI: 1.38 µM
[41]
  GI50: 14.4 µM
  TGI: 27.6 µM
[42]
  GI50: 3.45 µM
  TGI: 11.8 µM
[43]
  GI50: 2.22 µM
  TGI: 5.18 µM
[44]
  GI50: 14.9 µM
  TGI: 28.2 µM
[45]
  GI50: 0.44 µM
  TGI: 6.5 µM
[46]
  GI50: 17.5 µM
  TGI: 31.4 µM
[47]
  GI50: 11.5 µM
  TGI: 23.7 µM
